From ChEMBL document CHEMBL2303647, “Data associated with the publication PLoS ONE, 8(3), e57888, (2013) PMID: 23505445. Compounds: GSK PKIS; Assays: NIH NCATS”

Columns and labels:
[1] = biological target: T1, Coelenterazine h 2-monooxygenase (Renilla reniformis, UniProt P27652)
T1 sequence (P27652 whole entry): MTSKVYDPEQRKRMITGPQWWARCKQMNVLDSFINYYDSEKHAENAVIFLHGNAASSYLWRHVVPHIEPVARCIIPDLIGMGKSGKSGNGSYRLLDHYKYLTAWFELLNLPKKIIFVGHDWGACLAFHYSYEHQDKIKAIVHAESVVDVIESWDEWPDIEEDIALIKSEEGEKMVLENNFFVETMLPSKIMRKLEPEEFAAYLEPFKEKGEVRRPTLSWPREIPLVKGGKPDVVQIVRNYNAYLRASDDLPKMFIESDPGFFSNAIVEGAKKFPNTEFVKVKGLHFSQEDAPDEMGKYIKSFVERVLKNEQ
Description: GSK_PKIS: Inhibition of Sea Pansy Luciferase (Data from PubChem: AID 652015) [NIH NCATS]

[2] = biological target: Luciferin 4-monooxygenase (Photinus pyralis, UniProt P08659)
Chain of Luciferin 4-monooxygenase (P08659 whole entry): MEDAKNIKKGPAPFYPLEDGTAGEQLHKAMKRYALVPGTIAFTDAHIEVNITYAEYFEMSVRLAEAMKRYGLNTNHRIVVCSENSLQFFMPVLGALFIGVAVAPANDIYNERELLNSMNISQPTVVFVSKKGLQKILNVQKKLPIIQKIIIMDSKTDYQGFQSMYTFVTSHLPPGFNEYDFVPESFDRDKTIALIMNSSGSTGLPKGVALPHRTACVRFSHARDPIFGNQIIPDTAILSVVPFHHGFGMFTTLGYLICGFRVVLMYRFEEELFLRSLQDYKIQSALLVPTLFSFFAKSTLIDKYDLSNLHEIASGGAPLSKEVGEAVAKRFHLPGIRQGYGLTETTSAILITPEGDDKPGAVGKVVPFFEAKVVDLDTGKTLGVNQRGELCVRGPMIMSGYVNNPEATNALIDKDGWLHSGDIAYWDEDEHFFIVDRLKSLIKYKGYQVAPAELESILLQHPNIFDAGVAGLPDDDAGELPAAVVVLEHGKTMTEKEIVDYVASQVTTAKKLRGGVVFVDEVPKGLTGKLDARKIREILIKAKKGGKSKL
Description: GSK_PKIS: Inhibition of Firefly Luciferase (Data from PubChem: AID 652016) [NIH NCATS]

| Structure (SMILES) | AC50 [1] | AC50 ([2]; read-out: AC50) | AC50 [2] | AC50 ([1]; read-out: AC50) |
| --- | --- | --- | --- | --- |
| COC(=O)Nc1nc2ccc(Oc3ccc(NC(=O)Nc4cccc(Cl)c4)cc3)cc2[nH]1.Cl [GW589961A] | Phenotype: Inactive; Curve_Description: None | 20.6 µM | – | – |
| CCC(=O)Nc1ccc(C)c(-c2ccc(C(=O)NCC3CC3)cc2)c1 [GW796921X] | Phenotype: Inactive; Curve_Description: None | 18.3 µM | – | – |
| Nc1nonc1-c1nc2cnccc2n1C1CC1 | Phenotype: Inactive; Curve_Description: None | – | Phenotype: Inactive; Curve_Description: None | – |
| CCCN1CCC(Oc2cc(Nc3nc(Nc4cccc(F)c4C(N)=O)c4cc[nH]c4n3)c(OC)cc2Cl)CC1 [GSK-1713088A] | Phenotype: Activator; Curve_Description: None | 0.291 µM | – | – |
| O=C(O)C(F)(F)F.[O-][S+]1CCN(Cc2ccc(-c3ccc4ncnc(Nc5ccc(OCc6cccc(F)c6)c(Cl)c5)c4c3)o2)CC1 [GW576609A] | Phenotype: Inactive; Curve_Description: None | 18.3 µM | – | – |
| COc1cc(C)c(NC(=O)CN(C)C)cc1Nc1nc(Nc2cccc(F)c2C(N)=O)c2cc[nH]c2n1 [GSK-2213727A] | Phenotype: Inactive; Curve_Description: None | – | Phenotype: Inactive; Curve_Description: None | – |
| C#Cc1cccc(Nc2ncnc3ccc(OCCCCNCCS(C)(=O)=O)cc23)c1 [GW680191X] | – | – | Phenotype: Inactive; Curve_Description: None | 29.1 µM |
| CN(C)c1cc2c(Nc3ccc4c(cnn4Cc4ccccc4)c3)ncnc2cn1 [GW282974X] | – | – | Phenotype: Inactive; Curve_Description: None | 23.1 µM |
| CC1=C(C(=O)Nc2ccc3[nH]ncc3c2)C(c2ccc(F)cc2)NC(=O)N1 (stereo not given) [GSK-180736A] | Phenotype: Inactive; Curve_Description: None | – | Phenotype: Inactive; Curve_Description: None | – |
| COC(=O)c1sc(-n2cnc3cc(OC)c(OC)cc32)cc1OCc1ccccc1C(F)(F)F [GSK-1030058A] | Phenotype: Inactive; Curve_Description: None | – | Phenotype: Inactive; Curve_Description: None | – |
| Cl.NC(=O)c1ccc(-c2nc(-c3ccccn3)c(-c3ccc4c(c3)OCO4)[nH]2)cc1 | Phenotype: Inactive; Curve_Description: None | – | Phenotype: Inactive; Curve_Description: None | – |
| COc1cc(Nc2ncc(-c3ccccc3)o2)cc(OC)c1 [GW631581B] | Phenotype: Inactive; Curve_Description: None | 6.51 µM | – | – |
| Cc1cccc2c1NC(=O)/C2=N\Nc1ccc(S(N)(=O)=O)cc1 [GW282536X] | – | – | Phenotype: Inactive; Curve_Description: None | 18.3 µM |
| CC(C)=Cc1cccc2c1/C(=N/Nc1ccc(S(N)(=O)=O)cc1)C(=O)N2 [GW396574X] | – | – | Phenotype: Inactive; Curve_Description: None | 20.6 µM |
| Clc1ccc(-c2nn3ncccc3c2-c2ccnc(Nc3ccccc3)n2)cc1 [GW829055X] | Phenotype: Inactive; Curve_Description: None | – | Phenotype: Inactive; Curve_Description: None | – |
| Cl.c1ccc(Oc2ccc(Nc3ncc(-c4ccccc4)o3)cc2)cc1 [GW641155A] | Phenotype: Inactive; Curve_Description: None | – | Phenotype: Inactive; Curve_Description: None | – |
| CN(c1ccc(NC(=O)Nc2c(Cl)cccc2Cl)cc1)c1ccnc(Nc2cccc(CS(C)(=O)=O)c2)n1 [GW809897X] | Phenotype: Inactive; Curve_Description: None | 0.58 µM | – | – |
| Cl.NC(=O)c1cccc(Nc2nccc(Nc3cccc(F)c3)n2)c1 [GW759710A] | Phenotype: Inactive; Curve_Description: None | 0.73 µM | – | – |
| CS(=O)(=O)CCNCc1coc(-c2ccc3ncnc(Nc4ccc(OCc5ccccc5)cc4)c3c2)c1.Cl [GW566221A] | Phenotype: Inactive; Curve_Description: None | 13 µM | – | – |
| [O-][S+]1CCN(Cc2ccc(-c3ccc4ncnc(Nc5ccc(OCc6ccccc6)c(Cl)c5)c4c3)o2)CC1 [GW583373A] | – | 14.6 µM | – | 0.0005 µM |
| CCN(CC)S(=O)(=O)c1ccc(OC)c(Nc2ncc(-c3ccccc3)o2)c1 [GW572401X] | Phenotype: Inactive; Curve_Description: None | – | Phenotype: Inactive; Curve_Description: None | – |
| O=C1Nc2ccccc2/C1=C/Nc1ccc(-n2cncn2)cc1 [GW301789X] | Phenotype: Inactive; Curve_Description: None | 18.3 µM | – | – |
| Nc1nccc(-c2c(-c3ccc(F)cc3)ncn2C2CCC(O)CC2)n1 (stereo not given) | Phenotype: Inactive; Curve_Description: None | – | Phenotype: Inactive; Curve_Description: None | – |
| COC(=O)Nc1nc2cc(Oc3cccc(NC(=O)Nc4cc(C(F)(F)F)ccc4F)c3)ccc2[nH]1.Cl [GW659386A] | Phenotype: Inactive; Curve_Description: None | 16.3 µM | – | – |
| Cc1ccc(C(=O)NC2CCC2)cc1-c1ccc(C(=O)NCC2CC2)cc1 [GW782912X] | Phenotype: Inactive; Curve_Description: None | 29.1 µM | – | – |

| Structure (SMILES) | AC50 [1] | AC50 ([2]; read-out: AC50) | AC50 [2] | AC50 ([1]; read-out: AC50) |
| --- | --- | --- | --- | --- |
| COc1cc2ncn(-c3cc(O[C@H](C)c4ccccc4Cl)c(C(N)=O)s3)c2cc1OC [GSK-237701A] | – | – | Phenotype: Inactive; Curve_Description: None | 3.66 µM |
| Cl.Oc1cccc(-c2nc(-c3ccccc3)[nH]c2-c2ccncc2)c1 | – | – | Phenotype: Inactive; Curve_Description: None | 23.1 µM |
| CNC(=O)c1cccc(C#Cc2cncnc2Nc2ccc(OCc3cccc(F)c3)c(Cl)c2)c1 [GW772405X] | Phenotype: Inactive; Curve_Description: None | – | Phenotype: Inactive; Curve_Description: None | – |
| COc1ccccc1Nc1ncc(-c2ccccc2)o1.Cl [GW577921A] | Phenotype: Inactive; Curve_Description: None | 1.03 µM | – | – |
| c1ccc(COc2ccc(Nc3ncnc4ccc(-c5ccco5)cc34)cc2)cc1 [GW284372X] | Phenotype: Inactive; Curve_Description: None | 29.1 µM | – | – |
| CCn1c(-c2nonc2N)nc2cnc(Oc3cccc(NC(=O)c4ccc(N(C)C)cc4)c3)cc21 [GSK-248233A] | Phenotype: Inactive; Curve_Description: None | 1.03 µM | – | – |
| C[C@@H](Oc1cc(-n2cnc3ccc(OC4CCN(C)CC4)cc32)sc1C(N)=O)c1ccccc1Cl [GSK-579289A] | – | – | Phenotype: Inactive; Curve_Description: None | 20.6 µM |
| CS(=O)(=O)CCNCc1ccc(-c2ccc3ncnc(Nc4ccc(OCc5cccc(F)c5)c(C(F)(F)F)c4)c3c2)o1 [GW576484X] | Phenotype: Inactive; Curve_Description: None | – | Phenotype: Inactive; Curve_Description: None | – |
| CS(=O)(=O)CCNCc1ccc(-c2ccc3ncnc(Nc4ccc(OCc5ccccc5)cc4)c3c2)o1.Cl [GW458787A] | Phenotype: Inactive; Curve_Description: None | 18.3 µM | – | – |
| O=C(Nc1n[nH]c2nnc(-c3cccnc3)cc12)C1CC1.O=C(O)C(F)(F)F | Phenotype: Inactive; Curve_Description: None | – | Phenotype: Inactive; Curve_Description: None | – |
| COc1ccc(COc2ccc(Cc3cnc(N)nc3N)cc2OC)cc1 [GW632580X] | Phenotype: Inactive; Curve_Description: None | – | Phenotype: Inactive; Curve_Description: None | – |
| Cc1ccc2c(-c3ccnc(Nc4ccc5c(c4)OCCO5)n3)c(-c3ccc(C(F)(F)F)cc3)nn2n1 [GW832467X] | Phenotype: Inactive; Curve_Description: None | – | Phenotype: Inactive; Curve_Description: None | – |
| Fc1ccc(-c2ncn(C3CCNCC3)c2-c2ccnc(Oc3ccc(F)c(F)c3)n2)cc1 | Phenotype: Inactive; Curve_Description: None | – | Phenotype: Inactive; Curve_Description: None | – |
| Cl.O=C(Nc1ccc(Oc2ccc3[nH]c(NC(=O)c4ccccc4)nc3c2)cc1)Nc1cc(C(F)(F)F)ccc1F [GW709042A] | Phenotype: Inactive; Curve_Description: None | – | Phenotype: Inactive; Curve_Description: None | – |
| CS(=O)(=O)CCN(CC#N)Cc1ccc(-c2ccc3ncnc(Nc4ccc(OCc5cccc(F)c5)c(Cl)c4)c3c2)o1 [GW616030X] | Phenotype: Inactive; Curve_Description: None | – | Phenotype: Inactive; Curve_Description: None | – |
| CS(=O)(=O)CCNCc1ccc(-c2ccc3ncnc(Nc4ccc(OCc5ccccc5)c(Br)c4)c3c2)o1.Cl [GW580496A] | Phenotype: Inactive; Curve_Description: None | 20.6 µM | – | – |
| Cc1cc(O)cc(C)c1/C=C/c1cncc(C(=O)OC(C)(C)C)c1 [GW439255X] | Phenotype: Inactive; Curve_Description: None | – | Phenotype: Inactive; Curve_Description: None | – |
| NCc1ccc(-n2c(-c3nonc3N)nc3cnccc32)cc1 | – | – | Phenotype: Inactive; Curve_Description: None | 41.1 µM |
| NC(=O)c1ccc2c(-c3ccnc(NCCCO)n3)c(-c3ccc(F)cc3)nn2c1 [GW581744X] | Phenotype: Inactive; Curve_Description: None | – | Phenotype: Inactive; Curve_Description: None | – |
| CC(C)c1ccc(Nc2nccc(-c3cnn4ncccc34)n2)cc1 [GW805758X] | Phenotype: Inactive; Curve_Description: None | 20.6 µM | – | – |
| CN1CCN(Cc2ccc(-c3cc4ncnc(Nc5ccc(OCc6cccc(F)c6)c(Cl)c5)c4s3)o2)CC1 [GW784684X] | – | – | Phenotype: Inactive; Curve_Description: None | 20.6 µM |
| CS(=O)(=O)Nc1ccc(N/C=C2\C(=O)Nc3ccccc32)cc1 [GW278681X] | – | 16.3 µM | – | 23.1 µM |
| CCc1nn2ncccc2c1-c1ccnc(NC2CC2)n1 [GW683768X] | Phenotype: Inactive; Curve_Description: None | – | Phenotype: Inactive; Curve_Description: None | – |
| Nc1nc(-c2ccc3c(c2)C(=Cc2cc(Br)c(O)c(Br)c2)C(=O)N3)cs1 [GW407323A] | – | 29.1 µM | – | 20.6 µM |
| C[C@@H](Oc1cc(-n2cnc3ccc(OCC4CCN(C)CC4)cc32)sc1C(N)=O)c1ccccc1C(F)(F)F [GSK-326090A] | – | – | Phenotype: Inactive; Curve_Description: None | 25.9 µM |
